This is an account of results in US10919856B2 (priority 2016, dated 2021).

Molecules are shown by their SMILES. Counter-ions that a name gives are not always drawn.

For one assay, the system named is influenza. The note with it: in vivo; cited from earlier work.
Assay [1] addresses influenza virus neuraminidase (wild-type) (Influenza A virus, UniProt Q9IGQ6). The class given is biochemical.

influenza virus neuraminidase (wild-type), sequence (Q9IGQ6 whole entry, looked up): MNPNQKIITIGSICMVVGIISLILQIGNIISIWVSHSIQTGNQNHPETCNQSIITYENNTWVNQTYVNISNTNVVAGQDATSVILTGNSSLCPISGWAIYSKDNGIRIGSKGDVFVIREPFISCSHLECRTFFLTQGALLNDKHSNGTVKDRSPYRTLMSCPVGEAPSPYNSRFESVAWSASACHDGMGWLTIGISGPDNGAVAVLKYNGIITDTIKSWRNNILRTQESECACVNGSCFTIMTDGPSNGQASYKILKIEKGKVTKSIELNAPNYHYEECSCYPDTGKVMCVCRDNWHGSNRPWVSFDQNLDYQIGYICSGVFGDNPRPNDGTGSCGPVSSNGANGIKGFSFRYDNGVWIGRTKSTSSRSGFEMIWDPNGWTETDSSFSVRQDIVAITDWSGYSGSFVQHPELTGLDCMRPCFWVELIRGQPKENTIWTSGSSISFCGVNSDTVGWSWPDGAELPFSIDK

Regarding `CCOC(=O)C1=C[C@@H](OC(CC)CC)[C@H](NC(C)=O)[C@@H](N)C1.O=P(O)(O)O` [Oseltamivir phosphate, ethyl (3R,4R,5S)-4-acetamido-5-amino-3-(1-ethylpropoxyl)-1-cyclohexene-1-carboxylate phosphate], in the assay with influenza, the “reduction of severity level of influenza symptoms” value was 40% and the “shortening of the state of illness” value was 3.1 days. On to `COCCO[C@@H]1CCCN([C@@H]2C=C(C(=O)O)C[C@H](N)[C@H]2NC(C)=O)C1` [Example 1, (3R,4R,5S)-4-acetamido-5-amino-3-((3S)-3-(2-methoxylethoxyl)piperidin)-1-cyclohexene-1-carboxylic acid trifluoroacetate], for which the “inhibiting activity on wild-type virus strains” value in assay [1] is given as “perfect inhibiting activities”. The same measure, in the same setting: the value for `COCCO[C@@H]1CCCN([C@@H]2C=C(C(=O)O)C[C@H](NC(=N)N)[C@H]2NC(C)=O)C1` [Example 11, (3R,4R,5S)-4-acetamido-5-guanidino-3-((3S)-(2-methoxylethyoxyl)piperidin)-1-cyclohexene-1-carboxylic acid trifluoroacetate] was “perfect inhibiting activities”.
